Data as given in patent publication US6150325A, “Bicyclic tachykinins antagonists, preparation thereof and their use in pharmaceutical compositions” (A. Menarini Industrie Farmaceutiche Riunite S.r.l., priority 1995, dated 2000).

Target: T1, NKA receptor (Mus musculus, UniProt P30549)
T1 construct: contractions of the urinary bladder in the anaesthetized mouse; from tissue; host or cells: urinary bladder of the anaesthetized animal, in vivo
T1 sequence (P30549 1-384): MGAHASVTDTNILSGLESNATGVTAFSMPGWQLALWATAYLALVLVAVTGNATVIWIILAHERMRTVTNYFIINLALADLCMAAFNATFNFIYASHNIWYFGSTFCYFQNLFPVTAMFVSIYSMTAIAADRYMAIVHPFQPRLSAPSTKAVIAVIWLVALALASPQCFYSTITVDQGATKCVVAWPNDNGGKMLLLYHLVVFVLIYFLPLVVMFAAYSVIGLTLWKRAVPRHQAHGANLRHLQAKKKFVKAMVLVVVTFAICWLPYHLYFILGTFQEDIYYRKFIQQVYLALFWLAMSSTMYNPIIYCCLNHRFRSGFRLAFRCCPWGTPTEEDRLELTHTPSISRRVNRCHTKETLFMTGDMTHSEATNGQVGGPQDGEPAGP
Experiment: in vivo inhibition of agonist [betaAla8]NKA(4-10)-induced contractions of the urinary bladder after intravenous administration
Settings: anaesthetized mouse, 10 nmol/Kg i.v.
Protocol: The capability of the compounds of the present invention to interact as agonists or antagonists with the neurokynin A (NKA) receptor has been valued in a in vitro test using the pulmonary artery of a rabbit (RPA) (Rovero et al., Neuropeptides, 1989, 13, 263-270) and their activity was determined as pKB ([…] of the dissociation constant), as described in Jenkinson et al., TiPS, 12, 53-56, 1991. For example, compound 2 has shown a pKB =8.67. The capability of the products of the present invention to interact as agonists or antagonists with NKA receptor has been valued in vivo as capability, after intravenous administration,to inhibit the agonist [betaAla^8 ] NKA (4-10)-induced contractions of the urinary bladder in the anaesthetized mouse, as described in Maggi et al., J. Pharmacol. Exp. Ther., 1991, 257, 1172. Compound 1, e.g., causes, at dose of 10 nmol/Kg i.v., an inhibitory effect of 50-70%, as it has been valued at different times. The effect lasts over a period of more than 3 hours.

cyclo([Asn(β-D-Glc)-Asp-Trp-Phe-Dap-Leu]cyclo(2β-5β)) [Compound 1]
duration of the inhibitory effect: more than 3 hours | inhibitory effect on [betaAla8]NKA(4-10)-induced contractions of the urinary bladder (valued at different times): 50-70%
